Laboratory results as given in US7939563B2, “Remedy for hypertension” (Kao Corporation, priority 2001, dated 2011).

Experiments:
[1] = test system: spontaneously hypertensive male rats (SHR); assay: Measurement of an antihypertensive effect: oral administration, systolic blood pressure of the caudal artery; assay type: in vivo, rat; details: 50 mg/Kg oral
Experimental: After each of 15 week-old, spontaneously hypertensive male rats (“SHR”) was accustomed to sphygmomanometric operation by preliminarily measuring its blood pressure for 7 successive days using a commercially available noninvasive sphygmomanometer for rats (manufactured by Softlon Co., Ltd.), the evaluation test was started. The rats were all bred under conditions (in a breeding room in a rat region) at a room temperature of 25±1° C., humidity of 55±10% RH and illumination for 12 hours (from 7:00 am to 7:00 pm).
In the test plot (Comparative Example), a solution of ferulic acid (50 mg/kg as a dose) in physiological saline was employed. In Test plot 2, Test plot 3, Test plot 4, Test plot 5 and Test plot 6, a solution of chlorogenic acid (50 mg/kg as a dosage) in physiological saline, oryzanol (50 mg/kg as a dosage), curcumin (50 mg/kg as a dosage), phenylethyl caffeate (50 mg/kg as a dosage) and rosmarinic acid (50 mg/kg as a dosage) were used, respectively. In each test plot, physiological saline was employed as a control. Each of the samples was orally administered.
SHRs were fasted overnight and divided into groups, each consisting of 5 rats. Systolic blood pressures of the caudal artery were measured prior to administration, and several times during 30 minutes to 24 hours after administration
The test results thus obtained were expressed by the mean value (%) and […] (SE) of the changing ratio (%) in systolic blood pressure.
A lowering ratio of the systolic blood pressure measured during 30 minutes to 24 hours each after administration relative to the systolic blood pressure prior to administration is shown in Table 1.

[2] = Blood levels of chlorogenic acid, caffeic acid and ferulic acid after oral chlorogenic acid in SHR; assay type: in vivo, rat; parameters: unit not given here; details: 200 mg/kg chlorogenic acid oral once
Experimental: To the SHR, 200 mg/kg of chlorogenic acid was orally administered once.
SHRs were fasted overnight and then divided into groups, each consisting of 5 rats.

[3] = test system: spontaneously hypertensive male rats (SHR); assay: Identification of an antihypertensive component: intravenous administration, systolic blood pressure of the carotid artery; assay type: in vivo, rat; details: anesthetized 15 week-old SHR, 5 μg mol/kg in physiological saline, intravenous via femoral vein catheter
Experimental: Its electrocardiograph was recorded by an electrocardiogram. A sample was injected to the femoral vein through a catheter. After the rats were accustomed sufficiently to the sphygmomanometric operation, the evaluation test was started. The rats were all bred under conditions (in a breeding room in a rat region) at a room temperature of 25±1° C., humidity of 55±10% RH and illumination for 12 hours (from 7:00 am to 7:00 pm). In the control plot, physiological saline was employed. […] Through a catheter, the sample was intravenously administered and while administration, systolic blood pressures of the carotid artery were measured with the passage of time.

[4] = Blood levels after 6 weeks of a beverage mixture containing an extract of raw coffee beans, liquid chromatography; assay type: in vivo; details: human, plasma, oral; read-out: blood level 24 hours after administration of chlorogenic acid
Experimental: The blood levels of chlorogenic acid, caffeic acid and ferulic acid were measured using liquid chromatography.

[5] = Blood level time course of ferulic acid after administration; assay type: in vivo
[6] = time 0 (prior to administration)

Compound: O=C(/C=C/c1ccc(O)c(O)c1)O[C@H]1[C@H](O)C[C@](O)(C(=O)O)C[C@H]1O [4-chlorogenic acid, 4-caffeoylquinic acid]
- changing ratio in systolic blood pressure (mean) [1, 6]: 0%
- changing ratio in systolic blood pressure (mean) ([1]; time 6 after administration): −8.5%
- changing ratio in systolic blood pressure (mean) ([1]; time 12 after administration): −9.1%
- changing ratio in systolic blood pressure (mean) ([1]; time 24 after administration): −11.0%

Compound: O=C(/C=C/c1ccc(O)c(O)c1)O[C@@H]1C[C@](O)(C(=O)O)C[C@@H](O)[C@H]1O [5-chlorogenic acid, 5-caffeoylquinic acid]
- blood level after the administration of chlorogenic acid [2, 6]: 0
- blood level after the administration of chlorogenic acid ([2]; time 3): 0
- blood level after the administration of chlorogenic acid ([2]; time 6): 0
- blood level after the administration of chlorogenic acid ([2]; time 9): 0
- blood level after the administration of chlorogenic acid ([2]; time 12): 0
- blood level after the administration of chlorogenic acid ([2]; time 24): 0

Compound: O=C(O)/C=C/c1ccc(O)c(O)c1 [caffeic acid]
- blood level after the administration of chlorogenic acid [2, 6]: 0
- blood level after the administration of chlorogenic acid ([2]; time 3): 0.07
- blood level after the administration of chlorogenic acid ([2]; time 6): 0.179
- blood level after the administration of chlorogenic acid ([2]; time 9): 0.166
- blood level after the administration of chlorogenic acid ([2]; time 12): 0.05
- blood level after the administration of chlorogenic acid ([2]; time 24): 0
- fluctuation in systolic blood pressure of the carotid artery [3]: Fluctuations in the blood pressure was not recognized
- concentration at 24 h [4]: 95.4 ng/mL

Compound: COc1cc(/C=C/C(=O)CC(=O)/C=C/c2ccc(O)c(OC)c2)ccc1O [curcumin]
- changing ratio in systolic blood pressure (mean) [1, 6]: 0%
- changing ratio in systolic blood pressure (mean) ([1]; time 6 after administration): −15.2%
- changing ratio in systolic blood pressure (mean) ([1]; time 12 after administration): −3.5%
- changing ratio in systolic blood pressure (mean) ([1]; time 24 after administration): −5.3%

Compound: COc1cc(/C=C/C(=O)O)ccc1O [ferulic acid]
- blood level after the administration of chlorogenic acid [2, 6]: 0
- blood level after the administration of chlorogenic acid ([2]; time 3): 0.074
- blood level after the administration of chlorogenic acid ([2]; time 6): 0.154
- blood level after the administration of chlorogenic acid ([2]; time 9): 0.174
- blood level after the administration of chlorogenic acid ([2]; time 12): 0.145
- blood level after the administration of chlorogenic acid ([2]; time 24): 0
- time after which metabolism and excretion are completed [5]: about 4 hours
- time at which the blood level reaches the maximum [5]: about 2 hours
- changing ratio in systolic blood pressure (mean) [1, 6]: 0%
- changing ratio in systolic blood pressure (mean) ([1]; time 0.5 after administration): −9.5%
- changing ratio in systolic blood pressure (mean) ([1]; time 1 after administration): −10.3%
- changing ratio in systolic blood pressure (mean) ([1]; time 2 after administration): −6.8%
- changing ratio in systolic blood pressure (mean) ([1]; time 4 after administration): −7.9%
- changing ratio in systolic blood pressure (mean) ([1]; time 6 after administration): −3.2%
- fluctuation in systolic blood pressure of the carotid artery [3]: lowering in the blood pressure was recognized
- concentration at 24 h [4]: 104 ng/mL

Compound: O=C(/C=C/c1ccc(O)c(O)c1)OCCc1ccccc1 [phenylethyl caffeic acid, phenylethyl caffeate]
- changing ratio in systolic blood pressure (mean) [1, 6]: 0%
- changing ratio in systolic blood pressure (mean) ([1]; time 6 after administration): −13.7%
- changing ratio in systolic blood pressure (mean) ([1]; time 12 after administration): −1.3%
- changing ratio in systolic blood pressure (mean) ([1]; time 24 after administration): −0.7%

Compound: O=C(O)[C@]1(O)C[C@@H](O)[C@@H](O)[C@H](O)C1 [quinic acid]
- fluctuation in systolic blood pressure of the carotid artery [3]: Fluctuations in the blood pressure was not recognized

Compound: O=C(/C=C/c1ccc(O)c(O)c1)O[C@H](Cc1ccc(O)c(O)c1)C(=O)O [rosemaric acid, rosmarinic acid]
- changing ratio in systolic blood pressure (mean) [1, 6]: 0%
- changing ratio in systolic blood pressure (mean) ([1]; time 6 after administration): −6.4%
- changing ratio in systolic blood pressure (mean) ([1]; time 12 after administration): 0.9%
- changing ratio in systolic blood pressure (mean) ([1]; time 24 after administration): 2.2%

Compound: oryzanol
- changing ratio in systolic blood pressure (mean) [1, 6]: 0%
- changing ratio in systolic blood pressure (mean) ([1]; time 1 after administration): −15.2%
- changing ratio in systolic blood pressure (mean) ([1]; time 2 after administration): −12.8%
- changing ratio in systolic blood pressure (mean) ([1]; time 4 after administration): −13.8%
